Results from BindingDB's records for doi:10.1016/j.ejmech.2015.08.002 (Ochanomizu University, 2015).
pIC50: −log10 of the molar value.

biological target: Androgen receptor (Mus musculus) (UniProt P19091); experiment: Antagonist activity at wild type AR expressed in mouse SC-3 cells assessed as inhibition of 1 nM DHT-induced cell proliferation after 3 days by WST-8 assay
Sequence (P19091 whole entry, looked up): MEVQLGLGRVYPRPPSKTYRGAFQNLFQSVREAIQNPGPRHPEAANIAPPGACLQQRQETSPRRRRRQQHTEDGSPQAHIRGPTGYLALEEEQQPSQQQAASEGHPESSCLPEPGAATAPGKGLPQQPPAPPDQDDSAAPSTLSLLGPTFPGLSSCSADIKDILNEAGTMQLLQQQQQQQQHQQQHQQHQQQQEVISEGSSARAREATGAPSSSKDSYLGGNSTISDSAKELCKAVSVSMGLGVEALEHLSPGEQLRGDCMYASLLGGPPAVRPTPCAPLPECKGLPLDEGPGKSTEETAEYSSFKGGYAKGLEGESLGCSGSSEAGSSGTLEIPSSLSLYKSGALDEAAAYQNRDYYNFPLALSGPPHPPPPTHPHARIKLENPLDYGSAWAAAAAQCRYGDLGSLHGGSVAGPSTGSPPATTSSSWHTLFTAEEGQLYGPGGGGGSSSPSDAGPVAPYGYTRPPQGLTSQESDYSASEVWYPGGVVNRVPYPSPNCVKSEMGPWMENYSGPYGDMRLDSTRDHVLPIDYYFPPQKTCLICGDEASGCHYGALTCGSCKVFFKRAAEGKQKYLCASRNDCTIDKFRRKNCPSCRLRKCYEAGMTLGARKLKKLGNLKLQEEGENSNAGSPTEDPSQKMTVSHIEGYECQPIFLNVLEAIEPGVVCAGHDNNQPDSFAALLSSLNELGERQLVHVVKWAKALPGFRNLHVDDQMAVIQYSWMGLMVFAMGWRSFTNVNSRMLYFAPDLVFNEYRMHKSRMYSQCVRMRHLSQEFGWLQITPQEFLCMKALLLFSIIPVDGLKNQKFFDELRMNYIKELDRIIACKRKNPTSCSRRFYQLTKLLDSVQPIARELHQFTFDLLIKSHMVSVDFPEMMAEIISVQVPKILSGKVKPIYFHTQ

Point of comparison: `CCN(CC)c1ccccc1Cc1n[nH]c(=O)c2ccccc12`, pIC50 5.78. Against it:
- O=c1[nH]nc(Cc2ccccc2)c2ccccc12 — 0.51 log units lower, 5.27
- Cc1ccccc1Cc1n[nH]c(=O)c2ccccc12 — 0.76 log units lower, 5.02
- COc1ccccc1Cc1n[nH]c(=O)c2ccccc12 — 0.76 log units lower, 5.02
- O=c1[nH]nc(Cc2ccccc2F)c2ccccc12 — 0.80 log units lower, 4.98
- O=c1[nH]nc(Cc2ccccc2C(F)(F)F)c2ccccc12 — 0.34 log units lower, 5.44
- O=c1[nH]nc(Cc2ccccc2[N+](=O)[O-])c2ccccc12 — 0.50 log units higher, 6.28
- Nc1ccccc1Cc1n[nH]c(=O)c2ccccc12 — 0.88 log units higher, 6.66
- O=C(Nc1ccccc1Cc1n[nH]c(=O)c2ccccc12)C(F)(F)F — 0.22 log units higher, 6.00
- CCNc1ccccc1Cc1n[nH]c(=O)c2ccccc12 — 0.35 log units lower, 5.43
- CN(C)c1ccccc1Cc1n[nH]c(=O)c2ccccc12 — within 0.2 log units, 5.71
- CNc1ccccc1Cc1n[nH]c(=O)c2ccccc12 — 0.74 log units lower, 5.04
- Cc1cccc(C)c1Cc1n[nH]c(=O)c2ccccc12 — within 0.2 log units, 5.86
- O=c1[nH]nc(Cc2c(F)cccc2F)c2ccccc12 — 0.36 log units lower, 5.42
- O=c1[nH]nc(Cc2c(Cl)cccc2Cl)c2ccccc12 — 0.96 log units higher, 6.74
- O=c1[nH]nc(Cc2c(Cl)ccc(Cl)c2Cl)c2ccccc12 — 0.26 log units higher, 6.04
- O=c1[nH]nc(Cc2ccccc2Cl)c2ccccc12 [4-(2-chlorobenzyl)phthalazin-1(2H)-one] — within 0.2 log units, 5.90
